Drawing on PubChem BioAssay (NCI), this text covers TGI and GI50 for 29 molecules.

Holding throughout (assay): growth of human tumour cells (NCI), 48 h
Experiment [1] deals with SN12C renal.
Experiment [2] has as its system NCI-H226 lung.
Experiment [3] concerns KM12 colon.
For experiment [4], the system named is HOP-92 NSCLC.
The subject of experiment [5] is MALME-3M melanoma.
The subject of experiment [6] is OVCAR-3 ovarian.
Experiment [7] concerns U251 CNS.
Experiment [8] relates to UO-31 renal.
Experiment [9] relates to MDA-MB-231 breast.

“And” between values parts separate entries of the source, which are not always exact repeats. Identical values can stand only once.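 Dose response: 5 concentrations. Exposure: 48 h. Format: 96-well plates. Endpoint: linear interpolation; highest concentration if not reached. GI50 = concentration required for 50% inhibition of growth. The concentration for full growth arrest is given as TGI.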 Bounds are passed on as bounds.

Regarding `COC(=O)N/N=C(\C)c1sc(-c2nc(C)c(/C(C)=N/NC(=O)OC)s2)nc1C`, the TGI in experiment [1], in experiment [2], in experiment [3], in experiment [4], in experiment [5] and in [6] was over 100 µM in each case. Also, the TGI in experiment [7] and in [8] was over 100 µM in each case.
Consider `O=[N+]([O-])c1ccc(/C=C/c2ccc(/C=C/c3ccc([N+](=O)[O-])cc3[N+](=O)[O-])cc2)c([N+](=O)[O-])c1`, for which the TGI in experiment [2], in [3], in [5], in [6], in experiment [7] and in experiment [8] was over 100 µM throughout.
For `CN(C)c1ccc(/C=C2\CCc3ccccc3C2=O)cc1Br`, the TGI in experiment [1], in experiment [2], in experiment [3], in experiment [4], in experiment [5] and in experiment [6] was over 100 µM each time. For the same molecule, the TGI in experiment [7] and in experiment [8] was over 100 µM in each case.
In the case of `CNS(=O)(=O)NNS(=O)(=O)c1ccc(C)cc1`, the TGI in experiment [1], in [3], in experiment [4], in [5], in [6] and in [8] was over 100 µM each time.
As for `Nc1ccccc1C(=O)/C=C/c1ccccc1O`, the TGI was over 100 µM in experiment [1]; over 100 µM in [2]; over 100 µM in [3]; 81.6 µM in experiment [4]; over 100 µM in [5]; over 100 µM in [6]. For the same molecule, the TGI in experiment [7] and in experiment [8] was over 100 µM throughout.
`COc1cc2c(cc1OCCN1CCN(CCN3C(=O)c4cccc5cccc(c45)C3=O)CC1)N=C[C@@H]1CCCN1C2=O`: the GI50 was 23.2 µM in experiment [1]; 20.1 µM in experiment [2]; 18.2 µM in experiment [3]; 15.8 µM in experiment [6]; 16.1 µM in experiment [7]; 18.5 µM in [8]. Further, in experiment [9], the GI50 is 19.9 µM. Moreover, the TGI in [1] amounted to 58.6 µM; in experiment [2], 40.3 µM; in [3], 39 µM; in [6] it was 33.5 µM; in experiment [7], 34.1 µM; in experiment [8] it was 32.5 µM. In experiment [9], this molecule returned a TGI of 39.8 µM.
Take `CN(C)CCNC(=O)c1cccc2c1nc(-c1cccnc1)c1ccccc12`: the TGI in experiment [1] came out at 35.4 µM; in [2], 16.5 µM; in [3], 46.5 µM; in [4], 19.1 µM; in [6], 42 µM; in experiment [7], 24 µM. The molecule further had a TGI in [8] of 10.8 µM.
With `CC1(C)CC(=O)C(C(=O)Nc2cccs2)=C(O)C1`, the TGI in experiment [1] is over 100 µM; in [2], 86.8 µM; in experiment [3] it was over 100 µM; in experiment [4], 68.2 µM; in [5] it was over 100 µM; in experiment [6] it was over 100 µM. For the same molecule, the TGI in experiment [7] was over 100 µM; in experiment [8], 81.7 µM.
For `CCC12C=C(C(=O)OC)N3c4ccccc4C4CCN(CCC1)C2C43` (stereo not given), the TGI in experiment [1] is over 100 µM; in [2], 82.5 µM; in [3], over 100 µM; in experiment [4], over 100 µM; in experiment [5], 70.4 µM; in experiment [6], over 100 µM. The TGI in experiment [7] and in [8] was over 100 µM in each case.
`Cc1ccccc1NC(=O)CC(=O)NNCC(=O)Nc1nnc(-c2ccccc2)s1`: the TGI in experiment [1], in [2], in [3], in experiment [6], in experiment [7] and in [8] was over 100 µM in each case.
For the molecule `CC(C)(C)C1CC[C@H]2c3c([nH]c4ccccc34)[C@H]3C(=O)N(c4ccc(F)cc4)C(=O)[C@H]3[C@H]2C1` (stereo not given in full), the TGI was 23.6 µM in [1]; 35.3 µM in experiment [2]; 27.8 µM in experiment [3]; 48.1 µM in [4]; 36.8 µM in experiment [5]; 31 µM in experiment [6]. Besides, the figures for the TGI in experiment [7] and in experiment [8] were 20.8 µM and 29.7 µM, respectively.
As to `N#CC1(CCCCl)CCCCC1`, the TGI in experiment [1], in experiment [3], in [4], in experiment [5], in experiment [6] and in experiment [7] was over 100 µM throughout. Also, the TGI in experiment [8] is over 100 µM.
As to `O=C(/C=C(\[O-])c1ccccc1)CCCCCCC(=O)/C=C(\[O-])c1ccccc1.O=C(/C=C(\[O-])c1ccccc1)CCCCCCC(=O)/C=C(\[O-])c1ccccc1.O=C(/C=C(\[O-])c1ccccc1)CCCCCCC(=O)/C=C(\[O-])c1ccccc1.[Y+3].[Y+3]`, the GI50 was 47.3 µM in [1]; 39.2 µM in [2]; over 50 µM in experiment [3]; 17 µM in experiment [4]; over 50000 nM in experiment [5]; over 50 µM in [6]. Also, the GI50 is 25.7 µM in [7] and over 50 µM in [8]. In addition, the TGI in [1], in experiment [2], in experiment [3], in [4], in [5] and in [6] was over 50 µM each time. For the same molecule, the TGI in experiment [7] and in [8] was over 50 µM throughout.
Regarding `O/N=C1/C(=C/c2ccc(OCc3ccccc3)cc2)CCCC1C(NO)c1ccc(OCc2ccccc2)cc1` (stereo not given), the TGI is 9.54 µM in experiment [1]; over 100 µM in [2]; over 100 µM in experiment [3]; 63.5 µM in [4]; over 100 µM in [5]; 88.8 µM in experiment [6]. In addition, the TGI was 33.4 µM in experiment [7] and over 100 µM in experiment [8].
Consider `O=C(CCN1CCOCC1)Nc1ccc(Cn2nnc3c2C(=O)c2nnn(Cc4ccc(NC(=O)CCN5CCOCC5)cc4)c2C3=O)cc1`, for which the GI50 in experiment [1] is 0.52 µM; in experiment [2], over 100 µM; in experiment [4], 2.36 µM; in experiment [5] it was 247 nM; in [6], 0.333 µM; in experiment [7], 4.25 µM. For the same molecule, the GI50 in experiment [8] is over 100 µM. In addition, the TGI in experiment [1] is 2 µM; in experiment [2] it was over 100 µM; in experiment [4], 4.64 µM; in [5], 0.747 µM; in experiment [6], 1.39 µM; in experiment [7], 18.4 µM. Besides, the TGI in [8] was over 100 µM.
As to `CCCCCNC(=O)CCCCCCCCCCCNC(=O)CCCCCCCCCCN1C=CC(=CC=C2C=CC(=O)C=C2)C=C1`, the TGI was over 100 µM in [1]; over 100 µM in experiment [2]; over 100 µM in experiment [3]; 55.1 µM in [4]; over 100 µM in experiment [5]; over 100 µM in [6]. Also, the TGI in experiment [7] and in [8] was over 100 µM each time.
As to `CC(=O)NC(CCCNC(=O)OCc1ccccc1)C(=O)NCc1ccccc1` (stereo not given), the TGI in experiment [1], in [2], in experiment [3], in experiment [4], in [5] and in experiment [6] was over 100 µM in each case. The TGI in experiment [7] and in experiment [8] was over 100 µM each time.
Take `Cc1ccccc1NC(=O)C1C(=O)N(c2ccccc2C)C(=O)/C1=N\NC(N)=O` (stereo not given): the TGI in [1], in experiment [3], in experiment [4], in experiment [5], in experiment [6] and in [7] was over 100 µM in each case. The molecule also registered a TGI in experiment [8] of over 100 µM.
Turning to `CN1S(=O)(=O)N(C)P12(N=P(CP(=NP13(N(C)S(=O)(=O)N1C)N(C)S(=O)(=O)N3C)(c1ccccc1)c1ccccc1)(c1ccccc1)c1ccccc1)N(C)S(=O)(=O)N2C`, the TGI in [1], in [2], in [3], in experiment [4], in experiment [5] and in experiment [6] was over 100 µM throughout. The TGI in [7] and in experiment [8] was over 100 µM in each case.
Regarding `CN(C)c1ccc(/C=c2/sc3nc(=O)c(-c4ccccc4NC(=O)C(F)(F)F)nn3c2=O)cc1`, the TGI in experiment [1], in [2], in experiment [3], in experiment [4], in experiment [5] and in experiment [6] was over 100 µM each time. Further, the TGI in experiment [7] and in experiment [8] was over 100 µM in each case.
`CCCCC(C(=O)C(=O)Nc1ccccc1CC)C(=O)C(C)C` (stereo not given): the TGI in experiment [1], in experiment [2], in [3], in [4], in [5] and in [6] was over 100 µM throughout. The TGI in experiment [7] and in experiment [8] was over 100 µM in each case.
As to `O=C(CC1(O)C(=O)Nc2c(Cl)ccc(Cl)c21)c1ccc(Cl)cc1` (stereo not given), the TGI in [1] was 34.1 µM; in experiment [2] it was over 100 µM; in [3] it was 78 µM; in experiment [4] it was 93.9 µM; in [5], 71.8 µM; in experiment [6] it was 47.4 µM. Also, the TGI is 84.5 µM in experiment [7] and over 100 µM in [8].
As to `O=C1c2ccccc2C2(O)N(c3ccccc3)C(=S)N(c3ccccc3)C12O` (stereo not given), the TGI in experiment [1], in experiment [2], in experiment [3], in experiment [5], in [6] and in [7] was over 100 µM in each case. Further, the TGI in [8] was over 100 µM.
For `CC(C)(C)c1ccc(OCCOCCOc2ccc(C(C)(C)C)cc2S(N)(=O)=O)c(S(N)(=O)=O)c1`, the TGI in experiment [1], in [2], in [3], in experiment [4], in experiment [5] and in experiment [6] was over 100 µM in each case. Moreover, the TGI in experiment [7] and in experiment [8] was over 100 µM in each case.
`O=c1c2cc(Br)ccc2nc(CNc2ccccc2)n1-c1ccccc1`: the TGI is 29 µM in [1]; 43.9 µM in experiment [2]; over 100 µM in [3]; 37.8 µM in experiment [4]; 28.4 µM in experiment [5]; 48.5 µM in experiment [6]. For the same molecule, the TGI in [7] was 31.8 µM; in experiment [8], over 57.8 µM.
Regarding `N#Cc1c(CC(=O)O)cc(=O)n2c1[nH]c1ccccc12`, the TGI in [1], in [2], in [3], in [5], in [6] and in experiment [7] was over 100 µM throughout. Besides, in experiment [8], the TGI was over 100 µM.
As to `CCOC(=O)C1(C)CCC(C(=O)OC)C1=O` (stereo not given), the TGI in experiment [1], in [2], in [3], in experiment [4], in experiment [5] and in [6] was over 100 µM each time. Further, the TGI in experiment [7] and in experiment [8] was over 100 µM throughout.
For `CC(C)(C)C1CCC(O)(c2ccccc2)CC1` (stereo not given), the TGI in [1] is > 100 µM and 34.7 µM; in experiment [2], > 100 µM and 43 µM; in [3], > 100 µM and 63.6 µM; in [5], > 100 µM and 63.2 µM; in [6], > 100 µM and 41.7 µM; in experiment [7], > 100 µM and 32.3 µM. Further, in [8], the TGI was over 100 µM.
Take `COC(=O)C1CC(=O)O[C@H]1c1ccc(OC)c(OC)c1` (stereo not given in full): the TGI in experiment [1], in experiment [2], in experiment [3], in experiment [4], in [5] and in experiment [6] was over 100 µM each time. Also, the TGI in [7] and in [8] was over 100 µM in each case.
